The values that follow come from PubChem BioAssay (NCI).

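Assay format: 96-well plates, 48-hour exposure. GI50 marks 50% less growth. TGI marks complete inhibition of growth.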 Some results are limits rather than exact numbers.

Test systems include UACC-62 melanoma; NCI-H23 lung; MOLT-4 leukemia; SF-295 CNS; HCT-116 colon; 786-0 renal; SF-539 CNS; SW-620 colon; SK-MEL-28 melanoma; HOP-92 NSCLC.
Holding throughout (experiment): NCI anticancer screen, dose series, 48 h

`COc1cc2c(cc1OCCCn1c(-c3ccccn3)nc3ccccc31)N=C[C@@H]1CCCN1C2=O`: the GI50 was 1.48 µM in the test on UACC-62 melanoma; 1.08 µM with NCI-H23 lung; 4.38 µM in the test with MOLT-4 leukemia; 4.05 µM in the test with SF-295 CNS; 1.35 µM in the test on HCT-116 colon; 2.76 µM in the test with 786-0 renal. In addition, the GI50 with SF-539 CNS is 2.27 µM; in the test on SW-620 colon, 2.47 µM; with SK-MEL-28 melanoma it was 5.01 µM; with HOP-92 NSCLC it was 3.87 µM. In addition, the TGI in the test on UACC-62 melanoma was 3.04 µM; with NCI-H23 lung, 3.77 µM; with MOLT-4 leukemia it was above 28.6 µM; in the test on SF-295 CNS, 49.7 µM; in the test with HCT-116 colon, 7.56 µM; in the test on 786-0 renal, 10.9 µM. The TGI in the test with SF-539 CNS is 4.98 µM; in the test on SW-620 colon, 8.33 µM; in the test on SK-MEL-28 melanoma, 11.6 µM; with HOP-92 NSCLC, 26.6 µM.

In the case of `O=C1NC(=O)C2C(=O)NC(=O)C1C2c1c(Cl)cccc1Cl` (configuration not stated), the TGI in the test with UACC-62 melanoma was above 100 µM; with NCI-H23 lung it was above 100 µM; in the test with MOLT-4 leukemia it was above 100 µM; in the test with SF-295 CNS, above 100 µM; in the test with HCT-116 colon it was above 58.8 µM; with 786-0 renal, above 100 µM. Moreover, the TGI in the test on SF-539 CNS was above 100 µM; in the test with SW-620 colon, above 47.1 µM; in the test on SK-MEL-28 melanoma, above 100 µM; with HOP-92 NSCLC it was above 100 µM.

Regarding `O=c1[nH]c(=O)n(C2CC(O)C(COP(=O)(OCc3ccc([N+](=O)[O-])o3)N(CCCCCl)CC(O)CO)O2)cc1F` (configuration not stated), the GI50 in the test with UACC-62 melanoma is 0.138 µM; in the test with NCI-H23 lung, 2.79 µM; with MOLT-4 leukemia, 0.285 µM; in the test on SF-295 CNS, 0.295 µM; in the test with HCT-116 colon, 0.999 µM; with 786-0 renal it was 0.624 µM. Besides, the GI50 with SF-539 CNS was below 0.0348 µM; with SW-620 colon, 0.0447 µM; in the test on SK-MEL-28 melanoma it was above 100 µM; in the test with HOP-92 NSCLC, 0.156 µM. Further, the TGI in the test with NCI-H23 lung is above 100 µM; in the test with MOLT-4 leukemia, above 100 µM; in the test on SF-295 CNS, above 25.1 µM; in the test with HCT-116 colon it was above 100 µM; with 786-0 renal, above 100 µM; in the test on SW-620 colon, above 100 µM. In the test on SK-MEL-28 melanoma, the TGI is above 100 µM.

For `COC1C=COC2(C)Oc3c(C)c(O)c4c(c3C2=O)/C(=N/C2CCC(O)OC2C)C=C(NC(=O)/C(C)=C\C(=O)C2CC2C(O)C(C)C(O)C(C)C(OC(C)=O)C1C)C4=O` (configuration not stated), the TGI in the test with UACC-62 melanoma turned out to be 4.3 µM; in the test on NCI-H23 lung it was 3.62 µM; in the test on MOLT-4 leukemia, 8.05 µM; in the test on SF-295 CNS, 13.3 µM; in the test on HCT-116 colon, 3.56 µM; with 786-0 renal it was 3.13 µM. The TGI is 5.34 µM in the test on SF-539 CNS, 4.91 µM in the test with SW-620 colon, 4.32 µM with SK-MEL-28 melanoma and 5.29 µM with HOP-92 NSCLC.

Regarding `OCc1ccc(N2CCCC2c2ccccc2)cc1Cl` (configuration not stated), the GI50 in the test with UACC-62 melanoma is 0.665 µM; in the test with NCI-H23 lung it was 5.51 µM; with MOLT-4 leukemia, 4.75 µM; in the test with SF-295 CNS, 2.34 µM; in the test with HCT-116 colon, 0.744 µM; in the test on 786-0 renal, 11.5 µM. Further, the GI50 was 8.77 µM with SF-539 CNS, 2.8 µM with SW-620 colon, 8.16 µM with SK-MEL-28 melanoma and 2.06 µM in the test with HOP-92 NSCLC. For the same molecule, the TGI stood at 4.01 µM in the test with UACC-62 melanoma; 30 µM in the test with NCI-H23 lung; 24.9 µM with MOLT-4 leukemia; 7.77 µM in the test with SF-295 CNS; 10.6 µM in the test with HCT-116 colon; 28.4 µM with 786-0 renal. Besides, the TGI was determined as 21.8 µM in the test with SF-539 CNS, 27.7 µM in the test on SW-620 colon, 24.6 µM in the test on SK-MEL-28 melanoma and 9.28 µM in the test on HOP-92 NSCLC.

On to `CN(C)CCCn1c(=O)c2ccccc2c2ccccc21`, for which the GI50 in the test on UACC-62 melanoma was 17 µM; in the test on NCI-H23 lung, 17.6 µM; with MOLT-4 leukemia, 6.46 µM; in the test on SF-295 CNS, 7.69 µM; in the test on HCT-116 colon it was 4.74 µM; with 786-0 renal, 12.5 µM. Further, the GI50 in the test with SF-539 CNS was 11.8 µM; in the test on SW-620 colon it was 6.27 µM; in the test on SK-MEL-28 melanoma it was 21.6 µM; in the test with HOP-92 NSCLC, 17.9 µM. Further, the TGI is 33.6 µM in the test with UACC-62 melanoma; 46 µM in the test with NCI-H23 lung; above 100 µM with MOLT-4 leukemia; 32.8 µM in the test on SF-295 CNS; above 100 µM with HCT-116 colon; above 100 µM in the test on 786-0 renal. Besides, the TGI in the test with SF-539 CNS is 28.8 µM; with SW-620 colon it was 53.3 µM; in the test with SK-MEL-28 melanoma, 46.9 µM; in the test with HOP-92 NSCLC, 67.2 µM.

For the molecule `COc1ccc(C=O)c([N+](=O)[O-])c1`, the TGI in the test on UACC-62 melanoma is above 100 µM; with NCI-H23 lung, above 100 µM; in the test on MOLT-4 leukemia it was above 100 µM; with SF-295 CNS it was 64.9 µM; with HCT-116 colon, 26.4 µM; in the test with 786-0 renal, above 100 µM. Moreover, the TGI in the test with SF-539 CNS was 47.2 µM; in the test on SW-620 colon, above 100 µM; with SK-MEL-28 melanoma, above 100 µM; with HOP-92 NSCLC it was above 100 µM.

Consider `COc1ccc(-c2cc(-c3ccc(C)cc3)nc3nc(=S)[nH]c(N)c23)cc1`, for which the GI50 was 20.6 µM in the test with UACC-62 melanoma; 21.9 µM in the test on NCI-H23 lung; 35.6 µM in the test with MOLT-4 leukemia; 15.9 µM with SF-295 CNS; 11.3 µM with HCT-116 colon; 22.4 µM in the test on 786-0 renal. Further, the GI50 in the test on SF-539 CNS is 19.2 µM; in the test on SW-620 colon, 17.9 µM; in the test with SK-MEL-28 melanoma it was 40.6 µM; in the test on HOP-92 NSCLC, 15.5 µM. Moreover, the TGI worked out at 45.6 µM in the test with UACC-62 melanoma; 60.2 µM in the test on NCI-H23 lung; 72.3 µM with MOLT-4 leukemia; 34.9 µM with SF-295 CNS; 26.6 µM in the test with HCT-116 colon; 52.6 µM with 786-0 renal. Also, the TGI was 38.9 µM in the test on SF-539 CNS, 33.9 µM in the test on SW-620 colon, above 100 µM with SK-MEL-28 melanoma and 75.5 µM in the test on HOP-92 NSCLC.

`CC(=O)/C=C/c1cn(C(=O)OC(C)(C)C)c2ccc(Br)cc12`: the GI50 is 20.6 µM with UACC-62 melanoma; 19.8 µM with NCI-H23 lung; 41.6 µM in the test with MOLT-4 leukemia; 14.1 µM with SF-295 CNS; 8.39 µM in the test on HCT-116 colon; 11.8 µM in the test with 786-0 renal. Also, the GI50 was 12.8 µM in the test with SF-539 CNS, 19.1 µM in the test on SW-620 colon, 25.9 µM with SK-MEL-28 melanoma and 13.4 µM in the test on HOP-92 NSCLC. The TGI in the test on UACC-62 melanoma is above 85.7 µM; in the test with NCI-H23 lung, 42 µM; with MOLT-4 leukemia, above 100 µM; in the test with SF-295 CNS it was 28.8 µM; in the test on HCT-116 colon it was 21.6 µM; with 786-0 renal, 25.3 µM. Moreover, the TGI in the test with SF-539 CNS is 26 µM; in the test on SW-620 colon it was 39 µM; in the test on SK-MEL-28 melanoma it was above 68.1 µM; in the test with HOP-92 NSCLC, 35.8 µM.

In the case of `CCC(=O)C12OC3OC(C)(C)OC3C1OC(C)(C)O2` (configuration not stated), the TGI with UACC-62 melanoma, with NCI-H23 lung, in the test on MOLT-4 leukemia, with SF-295 CNS, in the test with HCT-116 colon and in the test with 786-0 renal was above 100 µM in each case. In addition, the TGI with SF-539 CNS, with SW-620 colon, in the test with SK-MEL-28 melanoma and with HOP-92 NSCLC was above 100 µM each time.

As for `CC#CCC1CCC(OCC)=CC1=O` (configuration not stated), the TGI in the test on UACC-62 melanoma, with NCI-H23 lung, in the test on MOLT-4 leukemia, in the test on SF-295 CNS, with HCT-116 colon and with 786-0 renal was above 100 µM throughout. Moreover, the TGI in the test with SF-539 CNS, with SW-620 colon, in the test on SK-MEL-28 melanoma and in the test with HOP-92 NSCLC was above 100 µM each time.

For `CCOc1ccccc1C(=O)N1CCN(c2cc(Cl)cc(Cl)c2)CC1`, the GI50 with UACC-62 melanoma was 0.0203 µM; in the test with NCI-H23 lung it was 0.0491 µM; in the test on MOLT-4 leukemia, 0.0424 µM; in the test with SF-295 CNS, 0.0252 µM; in the test on HCT-116 colon, 0.0325 µM; with 786-0 renal, 0.0624 µM. The GI50 in the test on SF-539 CNS is 0.0252 µM; in the test on SW-620 colon it was 0.0415 µM; with SK-MEL-28 melanoma, 3.55 µM; in the test on HOP-92 NSCLC it was 0.182 µM. Also, the TGI with UACC-62 melanoma came to 16 µM; in the test on NCI-H23 lung, 9.46 µM; in the test on MOLT-4 leukemia, 21 µM; in the test with SF-295 CNS it was 0.779 µM; in the test with HCT-116 colon, 4.02 µM; in the test on 786-0 renal, 14.8 µM. Also, the TGI came to 0.412 µM in the test with SF-539 CNS, 15.8 µM in the test on SW-620 colon, 22.2 µM in the test on SK-MEL-28 melanoma and 12.9 µM with HOP-92 NSCLC.
